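GI50 marks 50% less growth. TGI denotes the concentration required for complete inhibition of growth.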
Key:
Assay in all cases: NCI anticancer screen, dose series, 384-well format
NCI-H322M lung = system: NCI-H322M lung
MCF7 breast = system: MCF7 breast
NCI-H226 lung = system: NCI-H226 lung
SF-295 CNS = system: SF-295 CNS
HOP-92 NSCLC = system: HOP-92 NSCLC
T-47D breast = system: T-47D breast
U251 glioblastoma = system: U251 glioblastoma
HCT-116 colon = system: HCT-116 colon
SK-MEL-28 melanoma = system: SK-MEL-28 melanoma
KM12 colon = system: KM12 colon
NCI-H23 lung = system: NCI-H23 lung
OVCAR-4 ovarian = system: OVCAR-4 ovarian
PC-3 prostate = system: PC-3 prostate
A549 NSCLC = system: A549 NSCLC
TK-10 renal = system: TK-10 renal
EKVX NSCLC = system: EKVX NSCLC
BT-549 breast = system: BT-549 breast
LOX IMVI melanoma = system: LOX IMVI melanoma
SNB-75 CNS = system: SNB-75 CNS
UACC-62 melanoma = system: UACC-62 melanoma
SK-MEL-5 melanoma = system: SK-MEL-5 melanoma
NCI/ADR-RES ovarian = system: NCI/ADR-RES ovarian
UO-31 renal = system: UO-31 renal
MALME-3M melanoma = system: MALME-3M melanoma
SW-620 colon = system: SW-620 colon
SNB-19 CNS = system: SNB-19 CNS
MDA-MB-231 breast = system: MDA-MB-231 breast
OVCAR-8 ovarian = system: OVCAR-8 ovarian
786-0 renal = system: 786-0 renal
HCT-15 colon = system: HCT-15 colon
SF-539 CNS = system: SF-539 CNS
HCC-2998 colon = system: HCC-2998 colon
SF-268 CNS = system: SF-268 CNS
SK-OV-3 ovarian = system: SK-OV-3 ovarian
CAKI-1 renal = system: CAKI-1 renal
HOP-62 NSCLC = system: HOP-62 NSCLC
IGROV1 ovarian = system: IGROV1 ovarian
ACHN renal = system: ACHN renal
A498 renal = system: A498 renal

CN1CC[C@H](N(C)C(=O)N2CC(c3cc(F)ccc3F)=C[C@@]2(CO)c2ccccc2)[C@H](F)C1
TGI (NCI-H322M lung): 55.6 µM
TGI (MCF7 breast): 35.4 µM
TGI (NCI-H226 lung): 8.16 µM
TGI (SF-295 CNS): 1.28 µM
GI50 (HOP-92 NSCLC): 0.198 µM
TGI (HOP-92 NSCLC): 32.6 µM
TGI (T-47D breast): 43.1 µM
TGI (U251 glioblastoma): 14.5 µM
TGI (HCT-116 colon): 14.6 µM
GI50 (SK-MEL-28 melanoma): 0.646 µM
TGI (SK-MEL-28 melanoma): 19.5 µM
TGI (KM12 colon): 10.9 µM
TGI (NCI-H23 lung): 0.0371 µM
GI50 (OVCAR-4 ovarian): 21.6 µM
TGI (OVCAR-4 ovarian): > 100 µM
TGI (PC-3 prostate): 27.1 µM
TGI (A549 NSCLC): > 100 µM
GI50 (TK-10 renal): 4.89 µM
TGI (TK-10 renal): 35.3 µM
TGI (EKVX NSCLC): 28.2 µM
TGI (BT-549 breast): 13.6 µM
TGI (LOX IMVI melanoma): 20 µM
TGI (SNB-75 CNS): 27.4 µM
TGI (UACC-62 melanoma): 16.5 µM
TGI (SK-MEL-5 melanoma): 1.07 µM
TGI (NCI/ADR-RES ovarian): 0.0135 µM
GI50 (UO-31 renal): 3.34 µM
TGI (UO-31 renal): 95.1 µM
TGI (MALME-3M melanoma): 14.5 µM
TGI (SW-620 colon): > 100 µM
TGI (SNB-19 CNS): 27.5 µM
TGI (MDA-MB-231 breast): > 100 µM
TGI (OVCAR-8 ovarian): 11.4 µM
TGI (786-0 renal): 12.4 µM
TGI (HCT-15 colon): 28 µM
TGI (SF-539 CNS): 11.6 µM
TGI (HCC-2998 colon): 13.3 µM
TGI (SF-268 CNS): 11.7 µM
TGI (SK-OV-3 ovarian): 26.8 µM
TGI (CAKI-1 renal): > 100 µM
TGI (HOP-62 NSCLC): 25.9 µM
GI50 (IGROV1 ovarian): 6.07 µM
TGI (IGROV1 ovarian): > 100 µM
GI50 (ACHN renal): 9.3 µM
TGI (ACHN renal): > 100 µM
TGI (A498 renal): 13 µM

Source: PubChem BioAssay (NCI)
